Measurements published in patent publication US8362008B2 (The University Of Edinburgh, priority 2007, dated 2013).
pIC50: −log10 of the molar value. Counter-ions that a name gives are not always drawn.

How the values were obtained:
human 11β-HSD2 = biological target: T1, human 11β-HSD2 (Homo sapiens, UniProt P80365); assay: Cellular in vitro 11β-HSD2 enzyme inhibition assay (CHO cells, TLC/phosphoimager); type: cell-based; conditions: CHO cells stably transfected with human 11β-HSD2; Table 1
T1 construct: CHO cells stably transfected with the full-length gene coding for human 11β-HSD2 were used; expressed in transfected cells; host or cells: CHO
T1 sequence (P80365 1-405): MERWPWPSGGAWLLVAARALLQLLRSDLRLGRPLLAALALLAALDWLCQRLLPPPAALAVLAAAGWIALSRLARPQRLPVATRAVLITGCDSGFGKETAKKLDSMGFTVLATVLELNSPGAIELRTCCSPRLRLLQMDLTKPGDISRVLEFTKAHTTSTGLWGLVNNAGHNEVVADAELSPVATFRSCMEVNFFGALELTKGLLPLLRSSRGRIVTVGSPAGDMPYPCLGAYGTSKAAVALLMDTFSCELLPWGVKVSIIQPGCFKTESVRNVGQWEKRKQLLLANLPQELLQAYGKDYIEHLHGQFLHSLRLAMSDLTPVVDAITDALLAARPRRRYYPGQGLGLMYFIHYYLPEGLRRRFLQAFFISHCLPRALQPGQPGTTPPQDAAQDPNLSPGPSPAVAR
Experimental: Cellular In Vitro 11β-HSD2 Enzyme Inhibition Assay
For measurement of inhibition of 11β-HSD2, CHO cells stably transfected with the full-length gene coding for human 11β-HSD2 were used. Assays were carried out in 96-well microplates containing 1×10^5 cells/well. Controls and compounds were plated as above, so that the final DMSO concentration in each well was 1%. To initiate the assay, 90 μL of a solution of HAMS F-12 medium containing 1% glutamine, 1% penicillin and streptomycin, and 22 nM tritiated cortisol was added to each well of the assay plate. The plate was then incubated in 5% CO2, 95% O2 at 37° C. for 16 hours.
The assay solutions were transferred to glass tubes and 20 μL ethyl acetate added to each tube. Each tube was vortexed thoroughly and the upper layer containing the tritiated steroid transferred to a fresh glass tube. The solvent was evaporated by placing the tubes in a heating block at 65° C. under a stream of Nitrogen gas. 20 μL ethanol was added to each of the dried samples and vortexed briefly. Each sample was applied to a silica TLC plate and the plate dried. The plate was placed vertically in a glass tank containing 92% chloroform:8% ethanol and the solvent allowed to rise up the plate. The plate was dried, placed in an imaging cassette, and overlayed with a tritium imaging plate for 1-2 days. The amount of enzyme inhibition in each sample was determined by measuring the intensity of the substrate and product spots using a phosphoimager.
IC50 values for inhibitors were determined as described for 11β-HSD1.

human 11β-HSD1 enzyme = biological target: T2, human 11β-HSD1 enzyme (Homo sapiens, UniProt P28845); assay: Cellular in vitro 11β-HSD1 enzyme inhibition assay (SPA, HEK293/11β-HSD1 cells); type: cell-based
T2 construct: stably transfected with a construct containing the full-length gene coding for the human 11β-HSD1 enzyme; expressed in transfected cells; host or cells: HEK293 (HEK293/11β-HSD1 cells)
T2 sequence (P28845 whole entry): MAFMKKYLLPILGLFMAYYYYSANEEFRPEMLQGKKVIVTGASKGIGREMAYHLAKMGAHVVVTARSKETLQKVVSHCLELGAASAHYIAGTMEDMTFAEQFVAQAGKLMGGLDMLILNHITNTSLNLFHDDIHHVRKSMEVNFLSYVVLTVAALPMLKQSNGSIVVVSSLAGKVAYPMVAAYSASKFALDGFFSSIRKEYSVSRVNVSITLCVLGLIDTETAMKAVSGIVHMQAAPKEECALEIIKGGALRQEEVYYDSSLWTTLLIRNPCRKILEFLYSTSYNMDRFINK
Method in brief: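 Stably transfected HEK293 cells expressing full-length human 11β-HSD1 were plated 24 h, then incubated with compound 2 h at 37 °C; cortisol formed was quantified by SPA with anti-cortisol antibody. Percent inhibition used no-cell (minimum) and no-compound (maximum) wells; IC50 from four-parameter logistic fit.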

[1] = HEK293, less than or equal to 1000 nM (1 μM)
[2] = HEK293 cells stably transfected with human 11β-HSD1, Table 1
[3] = HEK293, more than 1000 nM (1.0 μM) and less than or equal to 30 μM

Structure (SMILES) | pIC50 (human 11β-HSD2) | pIC50 (human 11β-HSD1 enzyme; [1]) | pIC50 (human 11β-HSD1 enzyme; [2]) | pIC50 (human 11β-HSD1 enzyme; [3])
CCc1cc(C(=O)N2CCCCC2)c(Cl)s1 [AA-001, (2-Chloro-5-ethyl-thiophen-3-yl)-piperidin-1-yl-methanone] | < 5.00 | ≥ 6.00 | 6.55 | –
CS(=O)(=O)NCCNC(=O)N1CCC(c2cc(C(=O)N3CCCC4CCCCC43)cs2)CC1 (stereo not drawn) [CC-168, cis-4-[4-(Octahydro-quinoline-1-carbonyl)-thiophen-2-yl]-piperidine-1-carboxylic acid(2-methanesulfonylamino-ethyl)-amide] | < 5.00 | ≥ 6.00 | 7.11 | –
CC1(C)CCCN(C(=O)c2csc(C3CCN(C(=O)NCCO)CC3)c2)CC1 [CC-175] | < 5.00 | ≥ 6.00 | 7.64 | –
CC(=O)N1CCC(c2cc(C(=O)N3CCC[C@@H]4CCCC[C@@H]43)cs2)C1 (relative stereo) [CC-111, cis-1-{3-[4-(Octahydro-quinoline-1-carbonyl)-thiophen-2-yl]-pyrrolidin-1-yl}ethanone] | < 5.00 | ≥ 6.00 | 7.70 | –
COC(=O)N1CCC(c2cc(C(=O)N3CCCCC3c3ccccc3)cs2)CC1 (stereo not shown) [CC-119] | < 5.00 | ≥ 6.00 | 7.21 | –
CNC(=O)N1CCC(c2cc(C(=O)N3CCCC4CCCCC43)cs2)CC1 (stereo not shown) [CC-106] | < 5.00 | ≥ 6.00 | 7.02 | –
CCc1cc(C(=O)N2CCCC(F)(F)CC2)cs1 [AA-020] | – | – | – | 4.52 to 6.00
O=C(c1csc(C2CCN(CCO)CC2)c1)N1CCC[C@@H]2CCCC[C@@H]21 (racemic) [CC-088, cis-1-(2-Hydroxy-ethyl)-4-[4-(octahydro-quinoline-1-carbonyl)-thiophen-2-yl]-piperidinium formate] | – | – | – | 4.52 to 6.00
O=C(NCCO)N1CCC(c2cc(C(=O)N3CCCC4CCCCC43)cs2)CC1 (stereo not shown) [CC-173] | – | ≥ 6.00 | – | –

Other lines, results leading:

pIC50 (human 11β-HSD2) | pIC50 (human 11β-HSD1 enzyme; [1]) | pIC50 (human 11β-HSD1 enzyme; [2]) | pIC50 (human 11β-HSD1 enzyme; [3]) | Structure (SMILES)
< 5.00 | – | 6.90 | – | O=C(c1csc(C2CCNCC2)c1)N1CCC[C@@H]2CCCC[C@@H]21 (single isomer, unassigned) [CC-033, cis-(octahydro-quinolin-1-yl)-(5-piperidin-4-yl-thiophen-3-yl)-methanone]
< 5.00 | ≥ 6.00 | 7.17 | – | COCc1cc(C(=O)N2CCCC3(CCCCC3)C2)cs1 [BB-007]
< 5.00 | ≥ 6.00 | 6.05 | – | O=C(c1csc(C2CCCCC2)c1)N1CCCCCC1 [DD-002, Azepan-1-yl-(5-cyclohexyl-thiophen-3-yl)-methanone]
< 5.00 | ≥ 6.00 | 6.82 | – | CC1(C)CCCN(C(=O)c2csc(C3CCOCC3)c2)C1 [CC-003]
< 5.00 | ≥ 6.00 | 8.40 | – | CCc1cc(C(=O)N2CC3(C)CC2CC(C)(C)C3)cs1 (stereo not shown) [AA-014, (5-Ethyl-thiophen-3-yl)-(1,3,3-trimethyl-6-aza-bicyclo[3.2.1]oct-6-yl)-methanone]
– | ≥ 6.00 | – | – | O=C(Cc1cccnc1)N1CCC(c2cc(C(=O)N3CCCC4CCCCC43)cs2)CC1 (stereo not shown) [CC-134]
– | ≥ 6.00 | – | – | O=C(c1csc(C2CCOCC2)c1)N1CCCC2(CCCCC2)C1 [CC-077]
